Source: patent US7745420B2, “Methods for increasing in vivo efficacy of oligonucleotides and inhibiting inflammation in mammals” (Topigen Pharmaceutique, Inc., priority 2001, dated 2010)
[DAP] = 2,6-diaminopurine base (2-amino-2'-deoxyadenosine) replacing adenine

Tests used:
lungs/airways = conditions: in vivo; cited from earlier work
[1] = tested on: human immunodeficiency virus (HIV); conditions: Balzarini et al. 1987; cited from earlier work
[2] = tested on: common Beta chain of human GM-CSF, IL-3 and IL-5 receptor; experiment: Semi-quantitative RT-PCR of common beta chain mRNA in U937 cells treated with antisense; type: cell-based; conditions: compared with AS107 containing adenosine, G3PDH housekeeping gene
Method: Experiments were performed to assess whether antisense oligonucleotides described in international application WO 99/66037 (incorporated herein) directed against the common beta sub-unit of the IL-3, IL-5 and GM-CSF receptor, could inhibit the expression and the function of this receptor when modified by replacing adenosine by either 2-amino-2′-deoxyadenosine or inosine. TF-1 and U937 cells express high levels of GM-CSF receptors. In addition, TF-1 cells are dependent on GM-CSF for survival. These cells were cultured in RPMI 1640 supplemented with 10% heat-inactivated fetal calf serum, penicillin, streptomycin and 1-glutamine at 37° C. in 5% CO2 (the TF-1 cells were supplemented with GM-CSF). […] The sequence for 107A-DAP was: 5′-GGGTCTGCDapGCGGGDapTGGT-3′ (SEQ ID NO:21); the sequence for 107A-inosine (107A-I) was: 5′-GGGTCTGCIGCGGGIT GGT-3′ (SEQ ID NO:22). The cells were retrieved and washed 3 times. RNA was then retrieved and the presence of the beta chain of the receptor was assessed by semi-quantitative RT-PCR.

[3] = tested on: common Beta chain of human GM-CSF, IL-3 and IL-5 receptor; experiment: Semi-quantitative RT-PCR of common beta chain mRNA in TF-1 cells treated with antisense; type: cell-based; conditions: TF1 cells; compared with AS107 containing adenosine
Method: Experiments were performed to assess whether antisense oligonucleotides described in international application WO 99/66037 (incorporated herein) directed against the common beta sub-unit of the IL-3, IL-5 and GM-CSF receptor, could inhibit the expression and the function of this receptor when modified by replacing adenosine by either 2-amino-2′-deoxyadenosine or inosine. TF-1 and U937 cells express high levels of GM-CSF receptors. In addition, TF-1 cells are dependent on GM-CSF for survival. These cells were cultured in RPMI 1640 supplemented with 10% heat-inactivated fetal calf serum, penicillin, streptomycin and 1-glutamine at 37° C. in 5% CO2 (the TF-1 cells were supplemented with GM-CSF). For 12 hours they were either cultured in medium alone or medium with sense (107S: 5′-ACCAT CCCGCTGCAGACCC-3′ (SEQ ID NO:19) or antisense (107A: 5′-GGGTCTGCAGCGGGATGGT-3′; SEQ ID NO:20) oligonucleotides to the common beta sub-unit of the IL-3, IL-5 and GM-CSF receptor. The sequence for 107A-DAP was: 5′-GGGTCTGCDapGCGGGDapTGGT-3′ (SEQ ID NO:21); the sequence for 107A-inosine (107A-I) was: 5′-GGGTCTGCIGCGGGIT GGT-3′ (SEQ ID NO:22). The cells were retrieved and washed 3 times. RNA was then retrieved and the presence of the beta chain of the receptor was assessed by semi-quantitative RT-PCR.

OC[C@H]1O[C@@H](n2cnc3c(O)ncnc32)[C@H](O)[C@@H]1O [inosine]
bronchoconstriction of the lungs/airways compared to adenosine (lungs/airways): does not cause bronchoconstriction

Nc1nc(N)c2ncn([C@H]3CC[C@@H](CO)O3)c2n1 [2-amino-2′,3′-dideoxyadenosine]
inhibition of HIV replication in vitro [1]: capable of selectively inhibiting

5′-GGGTCTGCDapGCGGGDapTGGT-3′ (DNA GGGTCTGCNGCGGGNTGGT; DNA, [DAP] at 9, 15, backbone and methylation of C not given here) [AS107-DAP]
blocking the mRNA for the common Beta chain, semi-quantitative PCR [2]: at least equally effective
blocking mRNA expression of the common Beta chain, semi-quantitative PCR [3]: at least equally effective
